Test results as given in the supplement of paper PMC6045584.
± gives the standard deviation of the averaged measurements.

How the values were obtained:
[1] = compound: CN1CCN(c2nc(C3=C(c4c[nH]c5ccccc45)C(=O)NC3=O)c3ccccc3n2)CC1 [SOTRASTAURIN/AEB071]; experiment: surviving fraction relative to DMSO-only wells; higher = less growth inhibition; settings: exposure time: 5 days
How it was run: (§1)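 For each tumour cell line, log-phase cells were put into 384-well plates at 250–500 cells per well, then after 24 hours exposed continuously for five days to inhibitors at 0.5, 1, 5, 10, 50, 100, 500 and 1000 nM. Viability was assessed by CellTiter-Glo luminescence, with surviving fraction expressed relative to the median of DMSO-only wells. Lines were screened three times and retained only if replicate Pearson r exceeded 0.7 and median Z' exceeded 0.3.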

[2] = compound: CCn1c(C(=O)N(C2CC2)C2CC2)cc2c3c(ncn3C)c(Nc3cc(C)n(C)n3)nc21; experiment: as above; settings: exposure time: 5 days
How it was run: as §1

Test System | surviving fraction ([1]; 0.5 nM) | surviving fraction ([1]; 1 nM) | surviving fraction ([1]; 5 nM) | surviving fraction ([1]; 10 nM) | surviving fraction ([1]; 50 nM) | surviving fraction ([1]; 100 nM) | surviving fraction ([1]; 500 nM) | surviving fraction ([1]; 1000 nM) | surviving fraction ([2]; 0.5 nM) | surviving fraction ([2]; 1 nM) | surviving fraction ([2]; 5 nM) | surviving fraction ([2]; 10 nM) | surviving fraction ([2]; 50 nM) | surviving fraction ([2]; 100 nM) | surviving fraction ([2]; 500 nM) | surviving fraction ([2]; 1000 nM)
HCC78 LUNG | 1.08 ± 0.35 | 0.934 ± 0.14 | 0.96 ± 0.073 | 1 ± 0.12 | 1.16 ± 0.18 | 1.48 ± 0.17 | 1.11 ± 0.059 | 1.05 ± 0.058 | 0.942 ± 0.17 | 0.672 ± 0.3 | 0.745 ± 0.26 | 0.888 ± 0.17 | 0.774 ± 0.21 | 0.914 ± 0.089 | 0.707 ± 0.16 | 0.834 ± 0.2
HOS BONE | 1.021 ± 0.0061 | 1.01 ± 0.014 | 1.04 ± 0.023 | 1.014 ± 0.008 | 1.05 ± 0.014 | 1.03 ± 0.013 | 1.02 ± 0.018 | 0.974 ± 0.016 | 1 ± 0.0066 | 0.9927 ± 0.0081 | 0.994 ± 0.023 | 0.997 ± 0.0046 | 1.047 ± 0.0078 | 1.037 ± 0.0023 | 1.02 ± 0.013 | 0.96 ± 0.018
SJSA1 BONE | 1.72 ± 0.087 | 1.64 ± 0.046 | 1.64 ± 0.092 | 1.56 ± 0.13 | 0.992 ± 0.068 | 1.13 ± 0.029 | 1.7 ± 0.041 | 0.205 ± 0.018 | 1.03 ± 0.041 | 1.01 ± 0.028 | 1.02 ± 0.028 | 1.01 ± 0.057 | 1.06 ± 0.021 | 1.07 ± 0.022 | 1.059 ± 0.007 | 1.05 ± 0.034
HCC1395 BREAST | 0.996 ± 0.018 | 1.09 ± 0.058 | 1.16 ± 0.12 | 1.12 ± 0.15 | 1.19 ± 0.13 | 1.1 ± 0.1 | 0.885 ± 0.14 | 0.969 ± 0.075 | 1.15 ± 0.067 | 1.06 ± 0.14 | 1.25 ± 0.057 | 1.16 ± 0.1 | 1.216 ± 0.0056 | 1.12 ± 0.21 | 0.973 ± 0.13 | 1.1 ± 0.16
CAL51 BREAST | 0.993 ± 0.025 | 0.969 ± 0.071 | 0.933 ± 0.031 | 0.962 ± 0.05 | 0.968 ± 0.077 | 1.04 ± 0.04 | 0.938 ± 0.077 | 0.824 ± 0.05 | 0.972 ± 0.049 | 0.985 ± 0.034 | 0.98 ± 0.036 | 0.976 ± 0.043 | 1.02 ± 0.043 | 1.06 ± 0.031 | 1.02 ± 0.034 | 0.99 ± 0.015
MDAMB157 BREAST | 0.923 ± 0.041 | 1 ± 0.048 | 1.07 ± 0.12 | 1.04 ± 0.091 | 1.01 ± 0.03 | 0.971 ± 0.13 | 0.919 ± 0.053 | 0.936 ± 0.031 | 0.935 ± 0.14 | 0.923 ± 0.06 | 0.93 ± 0.042 | 0.935 ± 0.071 | 0.836 ± 0.059 | 0.89 ± 0.068 | 0.837 ± 0.059 | 0.829 ± 0.053
SG43 HEADNECK | 1.21 ± 0.12 | 0.963 ± 0.1 | 0.92 ± 0.087 | 0.761 ± 0.09 | 0.961 ± 0.15 | 1.14 ± 0.21 | 1.31 ± 0.11 | 1.15 ± 0.088 | 1.02 ± 0.22 | 1.02 ± 0.15 | 0.746 ± 0.015 | 0.935 ± 0.19 | 1.08 ± 0.27 | 0.767 ± 0.2 | 0.962 ± 0.31 | 0.784 ± 0.22
MDAMB231 BREAST | 0.955 ± 0.013 | 0.974 ± 0.037 | 1.01 ± 0.022 | 0.984 ± 0.031 | 1 ± 0.046 | 1.02 ± 0.0072 | 1.08 ± 0.033 | 1.05 ± 0.024 | 0.965 ± 0.026 | 0.9749 ± 0.0034 | 0.975 ± 0.038 | 1.01 ± 0.011 | 1.01 ± 0.02 | 1.02 ± 0.014 | 0.926 ± 0.02 | 0.9 ± 0.025
CAL72 BONE | 1.1 ± 0.021 | 1.09 ± 0.029 | 1.05 ± 0.029 | 1.08 ± 0.014 | 1.05 ± 0.04 | 1.08 ± 0.072 | 1.06 ± 0.044 | 1.1 ± 0.015 | 1.1 ± 0.015 | 1.11 ± 0.035 | 1.06 ± 0.019 | 1.035 ± 0.005 | 1.12 ± 0.022 | 1.16 ± 0.059 | 1.13 ± 0.028 | 1.1 ± 0.035
VP229 BREAST | 1.07 ± 0.054 | 1.23 ± 0.1 | 0.995 ± 0.023 | 1.04 ± 0.13 | 0.952 ± 0.084 | 0.812 ± 0.059 | 0.956 ± 0.13 | 0.856 ± 0.19 | 0.983 ± 0.11 | 1.04 ± 0.14 | 1.02 ± 0.21 | 1.06 ± 0.14 | 1.15 ± 0.13 | 1.09 ± 0.12 | 1.23 ± 0.1 | 1.14 ± 0.034
CASKI CERVIX | 0.955 ± 0.051 | 0.962 ± 0.08 | 0.974 ± 0.035 | 0.906 ± 0.026 | 0.989 ± 0.12 | 0.898 ± 0.047 | 0.975 ± 0.021 | 0.863 ± 0.036 | 0.85 ± 0.039 | 0.932 ± 0.015 | 0.972 ± 0.055 | 0.946 ± 0.073 | 0.994 ± 0.049 | 1 ± 0.062 | 0.985 ± 0.029 | 1.04 ± 0.06
BT549 BREAST | 0.889 ± 0.093 | 1.06 ± 0.068 | 1.01 ± 0.19 | 1.16 ± 0.2 | 0.904 ± 0.095 | 0.897 ± 0.035 | 0.919 ± 0.12 | 1.07 ± 0.16 | 1.14 ± 0.22 | 1 ± 0.046 | 1.06 ± 0.11 | 1.18 ± 0.12 | 0.934 ± 0.19 | 0.965 ± 0.2 | 1.04 ± 0.1 | 0.887 ± 0.13
MHM BONE | 1.04 ± 0.022 | 1.04 ± 0.05 | 1.07 ± 0.032 | 1.04 ± 0.046 | 1.11 ± 0.016 | 1.089 ± 0.01 | 1.078 ± 0.0072 | 1.05 ± 0.032 | 0.979 ± 0.035 | 0.964 ± 0.015 | 1 ± 0.022 | 0.995 ± 0.013 | 1 ± 0.019 | 0.999 ± 0.0044 | 0.976 ± 0.024 | 0.949 ± 0.022
DU4475 BREAST | 1.02 ± 0.16 | 1.2 ± 0.081 | 1.05 ± 0.038 | 0.986 ± 0.027 | 0.989 ± 0.068 | 1.08 ± 0.068 | 0.901 ± 0.24 | 0.844 ± 0.038 | 0.875 ± 0.26 | 0.938 ± 0.15 | 0.819 ± 0.24 | 0.887 ± 0.2 | 0.713 ± 0.23 | 0.675 ± 0.29 | 0.91 ± 0.46 | 1.05 ± 0.35
MDAMB468 BREAST | 0.911 ± 0.041 | 0.9443 ± 0.0091 | 1.02 ± 0.061 | 0.932 ± 0.019 | 0.964 ± 0.09 | 0.964 ± 0.077 | 0.947 ± 0.076 | 0.868 ± 0.053 | 0.984 ± 0.047 | 1.02 ± 0.059 | 1.05 ± 0.067 | 1.06 ± 0.09 | 1.05 ± 0.039 | 1.05 ± 0.074 | 0.985 ± 0.046 | 1.03 ± 0.095
LNCAP PROSTATE | 1.12 ± 0.11 | 1.05 ± 0.11 | 1.06 ± 0.052 | 0.998 ± 0.087 | 1.22 ± 0.069 | 1.16 ± 0.1 | 1.23 ± 0.025 | 1.18 ± 0.039 | 0.985 ± 0.1 | 0.852 ± 0.067 | 0.908 ± 0.19 | 0.861 ± 0.12 | 0.969 ± 0.032 | 0.915 ± 0.013 | 0.802 ± 0.03 | 0.806 ± 0.067
SNU475 LIVER | 0.996 ± 0.06 | 1.04 ± 0.055 | 1.01 ± 0.042 | 1.03 ± 0.034 | 0.9037 ± 0.0085 | 0.873 ± 0.029 | 0.932 ± 0.04 | 0.908 ± 0.046 | 0.974 ± 0.012 | 0.957 ± 0.049 | 0.973 ± 0.025 | 0.989 ± 0.026 | 0.979 ± 0.051 | 0.959 ± 0.017 | 0.938 ± 0.0085 | 0.895 ± 0.039
HUO3N1 BONE | 1 ± 0.051 | 1.04 ± 0.075 | 1.08 ± 0.025 | 1.08 ± 0.054 | 1.001 ± 0.01 | 1.02 ± 0.025 | 0.897 ± 0.024 | 0.883 ± 0.017 | 0.9853 ± 0.0075 | 0.999 ± 0.029 | 1.05 ± 0.057 | 1.03 ± 0.048 | 1.07 ± 0.021 | 1 ± 0.048 | 0.967 ± 0.038 | 0.868 ± 0.013
HCC1806 BREAST | 0.958 ± 0.19 | 0.944 ± 0.041 | 1.17 ± 0.078 | 1.08 ± 0.017 | 0.887 ± 0.026 | 1.01 ± 0.096 | 0.9673 ± 0.0067 | 0.908 ± 0.066 | 0.959 ± 0.2 | 0.993 ± 0.095 | 1.13 ± 0.043 | 1.04 ± 0.089 | 1.02 ± 0.11 | 1.21 ± 0.1 | 0.982 ± 0.078 | 0.885 ± 0.12
COLO320DM LARGE INTESTINE | 1.09 ± 0.06 | 1.05 ± 0.14 | 1 ± 0.046 | 1.08 ± 0.12 | 1.01 ± 0.084 | 1.07 ± 0.047 | 0.994 ± 0.056 | 1.05 ± 0.059 | 1.03 ± 0.053 | 1.11 ± 0.0081 | 1.15 ± 0.1 | 1.08 ± 0.11 | 1.17 ± 0.14 | 1.18 ± 0.095 | 1.14 ± 0.063 | 1.27 ± 0.22
ZR751 BREAST | 1.19 ± 0.11 | 1.3 ± 0.22 | 1.1 ± 0.15 | 1.16 ± 0.15 | 1.07 ± 0.092 | 1.1 ± 0.039 | 0.983 ± 0.15 | 1 ± 0.12 | 0.982 ± 0.19 | 0.864 ± 0.032 | 0.877 ± 0.11 | 0.99 ± 0.057 | 0.894 ± 0.095 | 0.8 ± 0.031 | 0.812 ± 0.027 | 0.772 ± 0.12
